Here are results for 27 compounds from US12410160B2 (Gilead Sciences, Inc., priority 2021, dated 2025).

In one assay the target is human KHK-C (Homo sapiens (Human), UniProt P50053). Description: KHK Biochemical Assay (IC50), ADP-Glo, KHK-C. The following applies: ADP-Glo; average of at least two separate assays. In outline:
(§1)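 Luminescent ADP-Glo read-out of ADP made by His-tagged KHK (BL21 (DE3) expression, Ni-NTA). Enzyme and compound sat together 30 min before ATP/fructose addition, then reacted 4 h at RT in Hepes pH 7.4 buffer with KCl, MgCl2, Triton-X. Quench 1 h, detection 1 h.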

Another assay concerns the target human KHK-A (Homo sapiens (Human), UniProt P50053). The assay is described as follows: KHK Biochemical Assay (IC50), ADP-Glo, KHK-A. The following applies: ADP-Glo; average of at least two separate assays. The gist of the method: as §1
The target of assay [1] is KHK-C expressed in NRK-52E cells (Homo sapiens (Human), UniProt P50053). The assay is described as follows: KHK-C Cell-based Assay (EC50), NRK CTG, fructose-mediated ATP-depletion.
Chain of KHK-C expressed in NRK-52E cells (P50053 whole entry): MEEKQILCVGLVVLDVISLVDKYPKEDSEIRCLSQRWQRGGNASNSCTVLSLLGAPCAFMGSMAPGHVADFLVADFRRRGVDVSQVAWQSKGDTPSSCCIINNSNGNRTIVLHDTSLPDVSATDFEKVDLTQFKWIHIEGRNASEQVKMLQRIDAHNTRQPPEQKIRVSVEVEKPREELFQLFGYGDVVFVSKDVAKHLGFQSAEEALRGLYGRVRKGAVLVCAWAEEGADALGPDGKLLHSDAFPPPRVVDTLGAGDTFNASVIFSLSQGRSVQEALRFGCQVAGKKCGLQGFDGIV

Chain of human KHK-C (P50053 whole entry): as above
Chain of human KHK-A (P50053 other isoform, or with tags, fused parts or gaps): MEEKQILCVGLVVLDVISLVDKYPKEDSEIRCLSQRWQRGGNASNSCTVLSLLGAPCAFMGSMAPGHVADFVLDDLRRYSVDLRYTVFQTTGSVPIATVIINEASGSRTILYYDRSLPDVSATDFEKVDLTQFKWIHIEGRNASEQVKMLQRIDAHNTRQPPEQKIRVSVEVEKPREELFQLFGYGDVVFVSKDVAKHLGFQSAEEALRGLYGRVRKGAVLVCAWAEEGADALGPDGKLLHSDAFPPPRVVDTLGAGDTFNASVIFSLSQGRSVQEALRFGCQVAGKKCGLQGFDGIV

Broadly, the IC50 is the concentration that gives 50% inhibition. High values mean weaker potency in that assay, low ones greater potency in that assay. As a reminder, the EC50 is the midpoint of the concentration-response curve. Low values mean higher potency in that assay, high ones lower potency in that assay. As for `C[C@H]1[C@H](F)CN1c1nc2c(c(-c3ccc(CN)cc3)n1)CCC2` [Example 201, [4-[2-[(2S,3R)-3-fluoro-2-methyl-azetidin-1-yl]-6,7-dihydro-5H-cyclopenta[d]pyrimidin-4-yl]phenyl]methanamine], the values for the IC50 on human KHK-C and against human KHK-A were 1.7 nM and 2.9 nM, respectively. The compound also registered an EC50 in assay [1] of 130 nM.

As to `C[C@H]1[C@H](O)CN1c1nc2c(c(-c3ccc(CN)cc3)n1)CCC2` [Example 202, (2S,3R)-1-[4-[4-(aminomethyl)phenyl]-6,7-dihydro-5H-cyclopenta[d]pyrimidin-2-yl]-2-methyl-azetidin-3-ol], the values for the IC50 against human KHK-C and against human KHK-A were 7.7 nM and 9.8 nM, respectively. In addition, in assay [1], the midpoint of the response, the EC50, lay at 111 nM.

For `C[C@H]1[C@H](O)CN1c1nc2c(c(-c3ccc4c(c3)C(=O)N(C)C4)n1)CCC2` [Example 204], the IC50 is 37.2 nM against human KHK-C and 118 nM against human KHK-A. This compound also returned an EC50 in assay [1] of 109 nM.

Regarding `C[C@H]1CCN1c1nc2c(c(-c3ccc4c(c3)C(=O)NC4)n1)CCC2` [Example 207], the IC50 against human KHK-C amounted to 28.2 nM; at human KHK-A it was 23.2 nM. For the same compound, the EC50 in assay [1] worked out at 55.8 nM.

Regarding `C[C@H]1C[C@H](C)N1c1nc2c(c(-c3cccc(S(N)(=O)=O)c3)n1)CCC2` [Example 208, 3-[2-[(28,48)-2,4-dimethylazetidin-1-yl]-6,7-dihydro-5H-cyclopenta[d]pyrimidin-4-yl]benzenesulfonamide], the IC50 at human KHK-C turned out to be 46.6 nM; against human KHK-A it was 36.7 nM. In assay [1], this compound yielded a 50% effective concentration (EC50) of 36.4 nM.

For the compound `C[C@H]1[C@H](F)CN1c1nc2c(c(-c3cccc(S(N)(=O)=O)c3)n1)CCC2` [Example 210], the IC50 at human KHK-C was found to be 19.7 nM; against human KHK-A, 17.6 nM. Besides, in assay [1], it took 38.2 nM to reach a half-maximal effect (EC50).

For `C[C@H]1CCN1c1nc(-c2ccccc2)c2c(ncn2C)n1` [Example 211, 7-methyl-2-[(2S)-2-methylazetidin-1-yl]-6-phenyl-purine], the IC50 against human KHK-C worked out at 4760 nM; against human KHK-A, 7310 nM. The same compound registered an EC50 in assay [1] of more than 50000 nM.

As to `C[C@H]1CCN1c1nc2c(c(-c3cnc(C(C)(C)O)s3)n1)CCC2` [Example 213, 2-[5-[2-[(2S)-2-methylazetidin-1-yl]-6,7-dihydro-5H-cyclopenta[d]pyrimidin-4-yl]thiazol-2-yl]propan-2-ol], the IC50 at human KHK-C is 33.3 nM; at human KHK-A, 52.6 nM. In assay [1], the EC50 worked out at 52.5 nM.

With `C[C@H]1CCN1c1nc2c(c(-c3cccc(C(=O)NCC(N)=O)c3)n1)CCC2` [Example 216, N-(2-amino-2-oxo-ethyl)-3-[2-[(2S)-2-methylazetidin-1-yl]-6,7-dihydro-5H-cyclopenta[d]pyrimidin-4-yl]benzamide], the values for the IC50 at human KHK-C and against human KHK-A were 38.4 nM and 37.8 nM, respectively. In assay [1], this compound displayed a concentration giving a half-maximal response (EC50) of 390 nM.

For `C[C@H]1CCN1c1nc2c(c(-c3cccc(C(=O)NCCC(=O)O)c3)n1)CCC2` [Example 217, 3-[[3-[2-[(2S)-2-methylazetidin-1-yl]-6,7-dihydro-5H-cyclopenta[d]pyrimidin-4-yl]benzoyl]amino]propanoic acid], the IC50 is 90.3 nM at human KHK-C and 130 nM at human KHK-A. In assay [1], this compound had an EC50 of more than 5000 nM.

With `C[C@H]1CCN1c1nc2c(c(-c3cccc(C(=O)NCCS(N)(=O)=O)c3)n1)CCC2` [Example 219, 3-[2-[(2S)-2-methylazetidin-1-yl]-6,7-dihydro-5H-cyclopenta[d]pyrimidin-4-yl]-N-(2-sulfamoylethyl)benzamide], the IC50 against human KHK-C worked out at 13.1 nM; on human KHK-A, 17.2 nM. This compound also had an EC50 in assay [1] of 283 nM.

As for `C[C@H]1CCN1c1nc2c(c(-c3cccc(C(=O)NCCC(N)=O)c3)n1)CCC2` [Example 220, N-(3-amino-3-oxo-propyl)-3-[2-[(2S)-2-methylazetidin-1-yl]-6,7-dihydro-5H-cyclopenta[d]pyrimidin-4-yl]benzamide], the IC50 on human KHK-C amounted to 57.3 nM; against human KHK-A, 58.6 nM. Moreover, the EC50 in assay [1] came to 190 nM.

`C[C@H]1CCN1c1nc2c(c(-c3cnc(CN)s3)n1)CCC2` [Example 221, (S)-(5-(2-(2-methylazetidin-1-yl)-6,7-dihydro-5H-cyclopenta[d]pyrimidin-4-yl)thiazol-2-yl)methanamine]: the figures for the IC50 against human KHK-C and against human KHK-A were 17.2 nM and 17.8 nM, respectively. In assay [1], the EC50 was 94.4 nM.

With `C[C@H]1[C@@H](F)CN1c1nc2c(c(-c3ccc(C(N)=O)cc3)n1)CCC2` [Example 226], the IC50 was 17.2 nM against human KHK-C and 25.5 nM against human KHK-A. For the same compound, the EC50 in assay [1] was found to be 26.9 nM.

Consider `C[C@H]1CCN1c1nc2c(c(-c3cccc(CNC(=O)CCO)c3)n1)CCC2` [Example 227, 3-hydroxy-N-[[3-[2-[(2S)-2-methylazetidin-1-yl]-6,7-dihydro-5H-cyclopenta[d]pyrimidin-4-yl]phenyl]methyl]propanamide], for which the IC50 against human KHK-C was found to be 70.3 nM; against human KHK-A, 75.6 nM. Besides, a half-maximal response in assay [1] (EC50) required 265 nM.

`C[C@H]1CCN1c1nc2c(c(-c3cccc(CNC(=O)CO)c3)n1)CCC2` [Example 231, 2-hydroxy-N-[[3-[2-[(2S)-2-methylazetidin-1-yl]-6,7-dihydro-5H-cyclopenta[d]pyrimidin-4-yl]phenyl]methyl]acetamide]: the values for the IC50 against human KHK-C and against human KHK-A were 50.6 nM and 56.7 nM, respectively. For the same compound, the EC50 in assay [1] is 199 nM.

With `C[C@H]1CCN1c1nc2c(c(-c3ccc4ccc(C(=O)O)cc4c3)n1)CCC2` [Example 232, 7-[2-[(2S)-2-methylazetidin-1-yl]-6,7-dihydro-5H-cyclopenta[d]pyrimidin-4-yl]naphthalene-2-carboxylic acid], the IC50 was 44.8 nM on human KHK-C and 46.1 nM against human KHK-A. Besides, the response in assay [1] was half-maximal at 1630 nM (EC50).

Regarding `C[C@H]1CCN1c1nc2c(c(-c3ccc4c(c3)S(=O)(=O)CNC4=O)n1)CCC2` [Example 234, 7-[2-[(2S)-2-methylazetidin-1-yl]-6,7-dihydro-5H-cyclopenta[d]pyrimidin-4-yl]-1,1-dioxo-2,3-dihydro-1lambda6,3-benzothiazin-4-one], the IC50 stood at 18.9 nM against human KHK-C and 39.1 nM against human KHK-A. The response in assay [1] was half-maximal at 56.4 nM (EC50).

`CO[C@@H]1CN(c2nc3c(c(-c4ccc(C(N)=O)cc4)n2)CCC3)[C@H]1C` [Example 235, 4-(2-((2S,3R)-3-methoxy-2-methylazetidin-1-yl)-6,7-dihydro-5H-cyclopenta[d]pyrimidin-4-yl)benzamide]: the half-maximal inhibitory concentration (IC50) at human KHK-C and on human KHK-A was more than 5000 nM each time. Besides, the EC50 in assay [1] is more than 5000 nM.

Consider `C[C@H]1CCN1c1nc2c(c(-c3ccc4c(c3)C(=O)NC4=O)n1)CCC2` [Example 240, 5-[2-[(2S)-2-methylazetidin-1-yl]-6,7-dihydro-5H-cyclopenta[d]pyrimidin-4-yl]isoindoline-1,3-dione], for which the IC50 on human KHK-C was found to be 173 nM; against human KHK-A it was 183 nM. This compound also returned an EC50 in assay [1] of 4980 nM.

Regarding `C[C@H]1CCN1c1nc2c(c(-c3cccc(CC(N)=O)c3)n1)CCC2` [Example 244, 2-[3-[2-[(2S)-2-methylazetidin-1-yl]-6,7-dihydro-5H-cyclopenta[d]pyrimidin-4-yl]phenyl]acetamide], the values for the half-maximal inhibitory concentration (IC50) at human KHK-C and against human KHK-A were 67.8 nM and 149 nM, respectively. This compound yielded an EC50 in assay [1] of 102 nM.

Consider `C[C@H]1CCN1c1nc2c(c(-c3ccc(CC(N)=O)cc3)n1)CCC2` [Example 245, 2-[4-[2-[(2S)-2-methylazetidin-1-yl]-6,7-dihydro-5H-cyclopenta[d]pyrimidin-4-yl]phenyl]acetamide], for which the IC50 against human KHK-C is 80.3 nM; against human KHK-A, 73.6 nM. The EC50 in assay [1] stood at 374 nM.

For `C[C@H]1CCN1c1nc2c(c(-c3cccc(C(N)C(F)(F)F)c3)n1)CCC2` (stereo partly drawn) [Example 246, 2,2,2-trifluoro-1-[3-[2-[(2S)-2-methylazetidin-1-yl]-6,7-dihydro-5H-cyclopenta[d]pyrimidin-4-yl]phenyl]ethanamine], the values for the IC50 at human KHK-C and on human KHK-A were 163 nM and 360 nM, respectively. In assay [1], this compound returned a half-maximal effective concentration (EC50) of 422 nM.

For the compound `C[C@H]1CCN1c1nc2c(c(-c3ccc4[nH]c(=O)[nH]c4c3)n1)CCC2` [Example 247, 5-[2-[(2S)-2-methylazetidin-1-yl]-6,7-dihydro-5H-cyclopenta[d]pyrimidin-4-yl]-1,3-dihydrobenzimidazol-2-one], the values for the IC50 at human KHK-C and on human KHK-A were 49.6 nM and 50 nM, respectively. The compound further registered an EC50 in assay [1] of 107 nM.

In the case of `C[C@H]1CCN1c1nc2c(c(-c3ccc4c(c3)CC(=O)N4)n1)CCC2` [Example 248, 5-[2-[(2S)-2-methylazetidin-1-yl]-6,7-dihydro-5H-cyclopenta[d]pyrimidin-4-yl]indolin-2-one], the IC50 against human KHK-C is more than 100 nM; at human KHK-A, 79.6 nM. In assay [1], a half-maximal response (EC50) required 154 nM.

On to `C[C@H]1CCN1c1nc2c(c(-c3ccc(C45CC(C(=O)O)(C4)C5)cc3)n1)CCC2` [Example 249, 3-[4-[2-[(2S)-2-methylazetidin-1-yl]-6,7-dihydro-5H-cyclopenta[d]pyrimidin-4-yl]phenyl]bicyclo[1.1.1]pentane-1-carboxylic acid], for which the IC50 was determined as 96.3 nM against human KHK-C and 105 nM on human KHK-A. Further, in assay [1], the EC50 was found to be 517 nM.

As for `C[C@H]1CCN1c1nc2c(c(-c3ccc(C45CC(C(N)=O)(C4)C5)cc3)n1)CCC2` [Example 250, 3-[4-[2-[(2S)-2-methylazetidin-1-yl]-6,7-dihydro-5H-cyclopenta[d]pyrimidin-4-yl]phenyl]bicyclo[1.1.1]pentane-1-carboxamide], the IC50 worked out at 129 nM at human KHK-C and 196 nM against human KHK-A. The compound further came in with an EC50 in assay [1] of 852 nM.
